The results in this text go back to patent US8361711B2, “Tools and methods useful in characterising the immunotoxic activity of xenobiotic substances” (National Institute of Public Health and the Environment, …, priority 2004, dated 2013).

The structures appear in SMILES notation. Where a name gives a salt, the structure may show the parent alone.

Series [1] concerns IL-10 promoter dEGFP reporter, EL/p2-5′IL10-dEGFP/5 (EL4). Briefly: Prototype cell chip, flow cytometry, IL-10 clone. Format: cell-based. How it is done: (§1) Samples were analyzed in an EPICS® XL-MCL Coulter flow cytometer with Expo v.2 Analysis Software/Expo32 Analysis Software (Applied Cytometry Systems, Sheffield, UK). or any other suitable flow cytometer. Viable and dead cells were gated separately and results were determined based on fluorescence associated with viable cells only. Regions were set in control cells and the same regions were used in induction controls and chemically challenged cells. Percent positive cells and fluorescence intensity were noted and used in further calculations.
(§2) Index numbers were calculated from the median fluorescence intensity of viable cells. Cells incubated in the absence or presence of ionomycin/PMA were analysed separately. Each clone incubated with or without ionomycin/PMA, but without further chemicals/compounds was defined as index number=1, and the index numbers for the other exposures were calculated from this. Experiments with the same exposures were pooled to perform statistical analysis, using SigmaStat 2.03 statistical analysis software (SPSS Inc., Chicago, Ill. USA).
(§3) One way ANOVAs (one way analysis of variance) were performed. In cases where normality failed, we used Kruskal-Wallis One Way Analysis of Variance on Ranks. If the differences between groups were statistically significant (p<0.05), we continued with tests for multiple comparisons. In normally distributed data we used Bonferroni t-test and multiple comparisons versus the control. The control was chosen to be the sample incubated in the presence or absence of ionomycin/PMA only. When normality failed we used […] for multiple comparisons versus the control.
(§4) The following cell lines: EL/pCA-dEGFP/9, EL/p1-5′IL2-dEGFP/6, EL/p2-5′ IL4-dEGFP/2, EL/p1-5′IFNγ-dEGFP/3, and EL/p2-5′IL10-dEGFP/5, obtained by transfection with the DNA constructs containing promoter region derived from β-actin, IL2, IL4, INF-γ, and IL10 were employed to design the prototype cell chip. The prototype cell chip was used to test the activity of different substances.
A general note: Flow cytometry measures light scatter and fluorescence of single cells or particles in a stream.

Series [2] relates to IL-4 promoter dEGFP reporter, EL/p2-5′IL4-dEGFP/2 (EL4). Briefly: Prototype cell chip, flow cytometry, IL-4 clone. Format: cell-based, mouse. How it is done:
as §1, §2, §3, §4

For series [3], the system named is IFN-γ fused to a stabile form of EGFP. Nature of the series: Clones with IFN-γ regulatory elements fused to a stabile form of EGFP. Format: cell-based, mouse. How it is done: as §1
(§5) Index numbers were calculated from the median fluorescence intensity of viable cells. Cells incubated in the absence or presence of ionomycin/PMA were analysed separately. Each clone incubated with or without ionomycin/PMA, but without further chemicals/compounds was defined as index number=1, and the index numbers for the other exposures were calculated from this.
as §3

Series [4] concerns cell lines developed in the project. Briefly: Cytotoxicity (cell viability) testing, LDH release. To be noted: for concentration which led to 10% cytotoxicity: highest concentration used on the cell chip. In general terms: LDH leaks from cells whose membrane has failed.
Experimental: The basic cytotoxicty assay employed was LDH release. Several cytotoxicity assays were performed independently in two laboratories. […] In addition, the cytotoxicity associated with the solvent was also tested to eliminate the possibility of interference in the test outcome.
Cells were plated in 24 well microtiter plates at a density of 0.5×10^6 cells/mL and with a final volume of 1.5 mL/well. Two controls were included for each cell line, in each experiment.
Series [5] deals with IL-2 promoter dEGFP reporter, EL/p1-5′IL2-dEGFP/6 (EL4). Nature of the series: Prototype cell chip, flow cytometry, IL-2 clone. It is filed as cell-based, mouse. How it is done:
as §1, §2, §3, §4

In series [6] the test system is β-actin promoter dEGFP reporter, EL/pCA-dEGFP/9 (EL4). Briefly: Prototype cell chip, flow cytometry, control clone. It is filed as cell-based. How it is done: as §1, §2, §3, §4
Series [7] has as its system IL-2 fused to a stabile form of EGFP. Nature of the series: Clones with IL-2 regulatory elements fused to a stabile form of EGFP. It is filed as cell-based, mouse. How it is done: as §1, §5, §3
For series [8], the system named is IFN-γ promoter dEGFP reporter, EL/p1-5′IFNγ-dEGFP/3 (EL4). Nature of the series: Prototype cell chip, flow cytometry, IFN-γ clone. Format: cell-based, mouse. How it is done:
as §1, §2, §3, §4

In series [9] the test system is J/p4-5′IL1β-dEGFP/4 reporter cell line. Format: cell-based.
The test system of series [10] is IL-1β promoter dEGFP reporter, J/p4-5′IL1β-dEGFP/4 cells. It is filed as cell-based, mouse.
Setting [11] is: absence of ionomycin/PMA, all tested concentrations.
The mark [12] stands for this setting: presence of ionomycin/PMA, all tested concentrations, 24 h.
Where [13] appears, read: presence of ionomycin/PMA, 1:10 dilution.
Where [14] appears, read: presence of ionomycin/PMA, 1:100 dilution.
[15] abbreviates: presence of ionomycin/PMA, highest concentration.
The mark [16] stands for this setting: absence of ionomycin/PMA, highest concentration.
The mark [17] stands for this setting: absence of ionomycin/PMA, highest concentration, 24 h.
The mark [18] stands for this setting: presence of ionomycin/PMA, all tested concentrations.
Setting [19] is: presence of ionomycin/PMA, highest concentration, 24 h.
Where [20] appears, read: presence of ionomycin/PMA, 1:10 dilution, 24 h.
[21] abbreviates: absence of ionomycin/PMA, 1:10 dilution, 24 h.

For the compound `O=C1CCC(N2C(=O)c3ccccc3C2=O)C(=O)N1` (racemic) [thalidomide, (+/−)—Thalidomide], the “IL-10 clone fluorescence vs control” value in series [1] (setting [11]) is reported as “did not show any significant changes”; in series [1] (setting [12]), “only actin inhibited”. In addition, the “IL-4 clone fluorescence vs control” value in series [2] (setting [11]) is recorded as “did not show any significant changes”; in series [2] (setting [12]), “only actin inhibited”. Moreover, the results for the “IFN-γ expression, stabile EGFP clone” value in series [3] (setting [13]), in series [3] (setting [14]) and in series [3] (setting [15]) were “did not show detectable effects”, “did not show detectable effects” and “dose-dependent inhibition”, respectively. The “toxicity (LDH-assay)” value in [4] is listed as “did not find thalidomide to be toxic”. Besides, the “IL-2 clone fluorescence vs control” value in series [5] (setting [11]) is recorded as “did not show any significant changes”; in series [5] (setting [12]) it was “only actin inhibited”. For the same compound, in series [6] (setting [16]), the “actin clone, inhibition” value is given as 5-10%. Further, in series [6] (setting [15]), the “actin clone fluorescence vs control” value is reported as “inhibited”. In addition, the “IL-2 inhibition, stabile EGFP clone” value in series [7] (setting [16]) was 10%. The “IL-2 expression, stabile EGFP clone” value was “did not show detectable effects” in series [7] (setting [13]), “did not show detectable effects” in series [7] (setting [14]) and “dose-dependent inhibition” in series [7] (setting [15]). Besides, the entries for the “IFN-γ clone fluorescence vs control” value in [8] (setting [11]) and in series [8] (setting [12]) were “did not show any significant changes” and “only actin inhibited”, respectively.
Consider `O=[N+]([O-])c1ccc(Cl)c([N+](=O)[O-])c1` [DNCB, 1-Chloro-2,4-dinitrobenzene], for which, in [1] (setting [12]), the “IL-10 clone fluorescence vs control” value is recorded as “no statistically significant changes were found”. Further, the figures for the “IL-4 clone fluorescence vs control” value in series [2] (setting [17]) and in [2] (setting [12]) were “increased expression” and “no statistically significant changes were found”, respectively. The “IFN-γ expression, stabile EGFP clone” value in series [3] (setting [16]) is listed as “apparently dose-dependent increase reaching statistical significance at the highest concentration”; in [3] (setting [18]), “failed to alter expression”. Also, in [4], the “concentration which led to 10% cytotoxicity” value amounted to 10 µM. Besides, the “IL-2 clone fluorescence vs control” value is “increased expression” in [5] (setting [17]) and “no statistically significant changes were found” in series [5] (setting [12]). The “actin clone fluorescence vs control” value in series [6] (setting [17]) is listed as “increased expression”; in series [6] (setting [12]) it was “no statistically significant changes were found”. Moreover, the “IL-2 expression, stabile EGFP clone” value in [7] (setting [18]) is reported as “failed to alter expression”. Further, the “IFN-γ clone fluorescence vs control” value in series [8] (setting [17]) was “increased expression”; in series [8] (setting [12]), “no statistically significant changes were found”.
For the compound `[Cl][Pt-2]([Cl])([Cl])[Cl].[K+].[K+]` [K2PtCl4, Potassium tetrachloro-platinate (II)], in series [9], the “NO levels in supernatants” value is reported as “elevated levels”. Besides, the results for the “IFN-γ expression, stabile EGFP clone” value in series [3] (setting [11]) and in series [3] (setting [15]) were “exposure effects were not observed” and “dose-dependent reduction”, respectively. Besides, in [10], the “GFP fluorescence under microscope” value is reported as “didn′t show noticeable fluorescence”. The “mRNA for GFP” value in series [10] (100 μM, stimulated for 6 h) was “upregulation of mRNA for GFP”. The “IL-2 expression, stabile EGFP clone” value was “exposure effects were not observed” in series [7] (setting [11]) and “dose-dependent reduction” in [7] (setting [15]).
With `CO[C@H]1C[C@@H]2CC[C@@H](C)[C@@](O)(O2)C(=O)C(=O)N2CCCC[C@H]2C(=O)O[C@H]([C@H](C)C[C@@H]2CC[C@@H](O)[C@H](OC)C2)CC(=O)[C@H](C)/C=C(\C)[C@@H](O)[C@@H](OC)C(=O)[C@H](C)C[C@H](C)/C=C/C=C/C=C/1C` [Rapamycin], in series [4], the “concentration which led to 10% cytotoxicity” value was determined as 10000 ng/mL.
On to `CCCCCCCCCCCCOS(=O)(=O)[O-].[Na+]` [SDS, Sodium Dodecyl Sulphate], for which the “IFN-γ expression, stabile EGFP clone” value in series [3] (setting [11]) is “exposure effects were not observed”; in [3] (setting [18]), “not affected”. In addition, the “IL-2 expression, stabile EGFP clone” value was “exposure effects were not observed” in series [7] (setting [11]) and “apparently dose-dependent reduction” in [7] (setting [15]).
As to `CCC[CH2][Sn]([CH2]CCC)([CH2]CCC)[O][Sn]([CH2]CCC)([CH2]CCC)[CH2]CCC` [TBTO, Bis(tri-n-butyltin) oxide], in series [3] (setting [11]), the “IFN-γ expression, stabile EGFP clone” value is “failed to show altered expression”. Besides, in series [7] (setting [11]), the “IL-2 expression, stabile EGFP clone” value was “failed to show altered expression”. Further, in series [7] (setting [13]), the “IL-2 expression, stabile EGFP clone” value is given as “statistically significant inhibition” and the “IL-2 inhibition, stabile EGFP clone” value was 10%.
Take `Cc1ccc(N=C=O)cc1N=C=O` [TDI, Tolylene 2,4-diisocyanate]: the “IL-4 clone fluorescence vs control” value in series [2] (setting [19]) is reported as “statistically significant increase”. The “concentration which led to 10% cytotoxicity” value in [4] was 500 µM. Also, the “IFN-γ clone fluorescence vs control” value in series [8] (setting [17]) is “significant induction”.
With `CCOC(=O)c1ccc(N)cc1` [benzocaine, Ethyl-4-Aminobenzoate], the “IL-10 clone fluorescence vs control” value in series [1] (setting [20]) and in series [1] (setting [19]) was “statistically significant inhibitory effect” each time. Also, in series [4], the “toxicity (LDH-assay)” value was “did not find benzocaine to be toxic”. In addition, the “IL-2 clone fluorescence vs control” value in series [5] (setting [20]) and in [5] (setting [19]) was “statistically significant inhibitory effect” each time. The “actin clone fluorescence vs control” value in series [6] (setting [17]) is “significantly increased”. Besides, in [8] (setting [19]), the “IFN-γ clone fluorescence vs control” value is recorded as “inhibited”.
Turning to `[Cl][Hg][Cl]` [mercuric chloride, Mercury (II) chloride], the “IFN-γ expression, stabile EGFP clone” value in series [3] (setting [11]) is “exposure effects were not observed”; in series [3] (setting [15]) it was “apparently dose-dependent reduction”. Also, the “IL-2 expression, stabile EGFP clone” value in [7] (setting [11]) is “exposure effects were not observed”; in series [7] (setting [18]), “not affected”.
Consider `N=C(N)c1ccc(OCCCCCOc2ccc(C(=N)N)cc2)cc1` [pentamidine, Pentamidine isethionate salt], for which the “IL-10 clone fluorescence vs control” value in series [1] (setting [21]) is given as “clearly inhibited”; in series [1] (setting [17]), “clearly inhibited”; in [1] (setting [20]), “suppressed”; in [1] (setting [19]) it was “suppressed”. Besides, the “IL-4 clone fluorescence vs control” value in series [2] (setting [20]) and in [2] (setting [19]) was “suppressed” each time. The “concentration which led to 10% cytotoxicity” value in [4] was 30000 ng/mL. Besides, the “IL-2 clone fluorescence vs control” value in series [5] (setting [20]) and in [5] (setting [19]) was “suppressed” in each case. For the same compound, the “actin clone fluorescence vs control” value is listed as “increase” in series [6] (setting [21]), “increase” in series [6] (setting [17]) and “not altered” in series [6] (setting [12]). Also, in [8] (setting [19]), the “IFN-γ clone fluorescence vs control” value was “suppressed”.
